# Experimental data taken from patent publication US11555042B2, “Macrocyclic compounds as TRK kinases inhibitors” (FOCHON BIOSCIENCES, LTD., priority 2018, dated 2023).
# pIC50: −log10 of the molar value.
# System: KM12 cells
# Assay: KM12 cells proliferation inhibition (MTS), mechanism-based assay for TRK
# Format: cell-based
# Conditions: 72 h
# Excerpt: MTS testing kit was purchased from Promega (Madison, Wis., USA). The RPMI-1640, Fetal bovine serum and Penicillin-Streptomycin were purchased from Gibco (San Francisco, Calif., USA). Dimethyl sulfoxide (DMSO) and Puromycin were purchased from Sigma (St. Louis., Mo., USA). Mouse interleukin-3 (IL-3) was purchased from Cell signaling Technology (Boston, Mass., USA).
# To investigate whether a compound is able to inhibit the activity of TRK in cells, a mechanism-based assay using KM12 cells was developed. In this assay, inhibition of TRK was detected by the inhibition of KM12 cells proliferation. KM12 cells were cultured in culture flasks to 40-80% confluence in RPMI-1640 plus 10% fetal bovine serum. Cells were collected and plated onto 96-well plates at 1000 cells/well. Plates were incubated at 37° C., with 5% CO2 for 4 h. Compounds were added to the plates, the final compound concentrations were […], 123.5, 41.2, 13.7, 4.6 and 1.5 nM. Place plates at 37° C., with 5% CO2 for KM12 cells 72 h. 20 μl MTS/100 μl medium mixture solution were added to each well and incubate the plates for exactly 2 h. Stop the reaction by adding 25 μl 10% SDS per well. Measure absorbance at 490 nm and 650 nm (reference wavelength). IC50 was calculated using GraphPad Prism 5.0.
row,Structure (SMILES),pIC50
1,"C[C@@H]1CCc2ccc(F)cc2C23CC2CCN3c2ccc3ncc(n3n2)C(=O)N1 (single isomer, unassigned) [Example 33B]",9.00
2,"C[C@@H]1CCc2ccc(F)cc2C23CC2CCN3c2ccn3ncc(c3n2)C(=O)N1 (stereo partly drawn) [Example 12B, (1^3E,1^4E,6R)-3^5-fluoro-6-methyl-2^2,7-diaza-1(5,3)-pyrazolo[1,5-a]pyrimidina-2(2,1)-bicyclo[3.1.0]hexana-3(1,2)-benzenacyclooctaphan-8-one]",8.70

# Same assay, conditions: Homo sapiens, KM12, 72 h
row,Structure (SMILES),pIC50
1,"C[C@@H]1CCc2ccc(F)cc2C23CC2CCN3c2ccc3ncc(n3n2)C(=O)N1 (single isomer, unassigned) [Example 33A]",9.00
2,"C[C@@H]1COc2ccc(F)cc2C23CC2CCN3c2ccn3ncc(c3n2)C(=O)N1 (stereo partly drawn) [Example 1, (1^3E,1^4E,6R)-3^5-fluoro-6-methyl-4-oxa-2^2,7-diaza-1(5,3)-pyrazolo[1,5-a]pyrimidina-2(2,1)-azabicyclo[3.1.0]hexana-3(1,2)-benzenacyclooctaphan-8-one]",9.00
3,"C[C@@H]1COc2ccc(F)cc2C2(CC2)Nc2ccn3ncc(c3n2)C(=O)N1 [Example 2, (R,3′E,4′E)-5′-fluoro-7′-methylspiro[cyclopropane-1,3′-5-oxa-2,8-diaza-1(5,3)-pyrazolo[1,5-a]pyrimidina-4(1,2)-benzenacyclononaphan]-9′-one]",9.00
4,"C[C@H]1CNC(=O)c2cnn3ccc(nc23)NC2(CC2)c2cc(F)ccc2O1 [Example 4, (S,3′E,4′E)-5′-fluoro-6′-methylspiro[cyclopropane-1,3′-5-oxa-2,8-diaza-1(5,3)-pyrazolo[1,5-a]pyrimidina-4(1,2)-benzenacyclononaphan]-9′-one]",9.00
5,"C[C@@H]1CCc2ncc(F)cc2C23CC2CCN3c2ccn3ncc(c3n2)C(=O)N1 (stereo partly drawn) [Example 5, (1^3E,1^4E,6R)-3^5-fluoro-6-methyl-2^2,7-diaza-1(5,3)-pyrazolo[1,5-a]pyrimidina-3(3,2)-pyridina-2(2,1)-bicyclo[3.1.0]hexanacyclooctaphan-8-one]",9.00
6,"C[C@@H]1COc2ncc(F)cc2C23CC2CCN3c2ccn3ncc(c3n2)C(=O)N1 (stereo partly drawn) [Example 6, (1^3E,1^4E,6R)-3^5-fluoro-6-methyl-4-oxa-2^2,7-diaza-1(5,3)-pyrazolo[1,5-a]-pyrimidina-3(3,2)-pyridina-2(2,1)-bicyclo[3.1.0]hexanacyclooctaphan-8-one]",9.00
7,"C[C@H]1CNC(=O)c2cnn3ccc(nc23)N2CCC3CC32c2cc(F)cnc2O1 (stereo partly drawn) [Example 7, (1^3E,1^4E,5S)-3^5-fluoro-5-methyl-4-oxa-2^2,7-diaza-1(5,3)-pyrazolo[1,5-a]pyrimidina-3(3,2)-pyridina-2(2,1)-bicyclo[3.1.0]hexanacyclooctaphan-8-one]",9.00
8,"C[C@H]1CNC(=O)c2cnn3ccc(nc23)NC2(CC2)c2cc(F)cnc2O1 [Example 9, (S,3′E,4′E)-5′-fluoro-6′-methylspiro[cyclopropane-1,3′-5-oxa-2,8-diaza-1(5,3)-pyrazolo[1,5-a]pyrimidina-4(3,2)-pyridinacyclononaphan]-9′-one]",8.15
9,"C[C@@H]1CCc2ncc(F)cc2C2(CC2)Nc2ccn3ncc(c3n2)C(=O)N1 [Example 10, (R,3′E,4′E)-5′-fluoro-7′-methylspiro[cyclopropane-1,3′-2,8-diaza-1(5,3)-pyrazolo[1,5-a]pyrimidina-4(3,2)-pyridinacyclononaphan]-9′-one]",9.00
10,"C[C@@H]1CCc2ccc(F)cc2C23CC2CCN3c2ccn3ncc(c3n2)C(=O)N1 (stereo partly drawn) [Example 12A, (1^3E,1^4E,6R)-3^5-fluoro-6-methyl-2^2,7-diaza-1(5,3)-pyrazolo[1,5-a]pyrimidina-2(2,1)-bicyclo[3.1.0]hexana-3(1,2)-benzenacyclooctaphan-8-one]",9.00
11,"C[C@@H]1COc2ccc(F)cc2C23CC2CCN3c2ccc3ncc(n3n2)C(=O)N1 (stereo partly drawn) [Example 13, (6R,E)-3^5-fluoro-6-methyl-4-oxa-2^2,7-diaza-1(6,3)-imidazo[1,2-b]pyridazina-2(2,1)-bicyclo[3.1.0]hexana-3(1,2)-benzenacyclooctaphan-8-one]",9.00
12,"C[C@@H]1COc2ncc(F)cc2C23CC2CCN3c2ccc3ncc(n3n2)C(=O)N1 (stereo partly drawn) [Example 14, (6R,E)-3^5-fluoro-6-methyl-4-oxa-2^2,7-diaza-1(6,3)-imidazo[1,2-b]pyridazina-3(3,2)-pyridina-2(2,1)-bicyclo[3.1.0]hexanacyclooctaphan-8-one]",9.00
13,"C[C@H]1CNC(=O)c2cnc3ccc(nn23)N2CCC3CC32c2cc(F)ccc2O1 (stereo partly drawn) [Example 32, (5S,E)-3^5-fluoro-5-methyl-4-oxa-2^2,7-diaza-1(6,3)-imidazo[1,2-b]pyridazina-2(2,1)-bicyclo[3.1.0]hexana-3(1,2)-benzenacyclo-octaphan-8-one]",9.00
14,"C[C@H]1CNC(=O)c2cnc3ccc(nn23)N2CCC3CC32c2cc(F)cnc2O1 (stereo partly drawn) [Example 34, (5S,E)-3^5-fluoro-5-methyl-4-oxa-2^2,7-diaza-1(6,3)-imidazo[1,2-b]pyridazina-3(3,2)-pyridina-2(2,1)-bicyclo[3.1.0]-hexanacyclooctaphan-8-one]",9.00
15,"C[C@@H]1CCc2ncc(F)cc2C23CC2CCN3c2ccc3ncc(n3n2)C(=O)N1 (stereo partly drawn) [Example 35, (6R,E)-3^5-fluoro-6-methyl-2^2,7-diaza-1(6,3)-imidazo[1,2-b]pyridazina-3(3,2)-pyridina-2(2,1)-bicyclo[3.1.0]hexanacyclo-octaphan-8-one]",9.00
16,"C[C@@H]1CNC(=O)c2cnn3ccc(nc23)NC2(CC2)c2cc(F)cnc2O1 [Example 42, (R,3′E,4′E)-5′-fluoro-6′-methylspiro-[cyclopropane-1,3′-5-oxa-2,8-diaza-1(5,3)-pyrazolo[1,5-a]pyrimidina-4(3,2)-pyridina-cyclononaphan]-9′-one]",8.52
17,"C[C@@H]1COc2ccc(F)cc2C2(CC2)N(C)c2ccc3ncc(n3n2)C(=O)N1 [Example 53, (7′R,E)-5′-fluoro-2′,7′-dimethylspiro-[cyclopropane-1,3′-5-oxa-2,8-diaza-1(6,3)-imidazo[1,2-b]pyridazina-4(1,2)-benzenacyclononaphan]-9′-one]",7.52
18,"C[C@@H]1CCc2ccc(F)cc2C2(CC2)N(C)c2ccc3ncc(n3n2)C(=O)N1 [Example 56, (7′R,E)-5′-fluoro-2′,7′-dimethylspiro-[cyclopropane-1,3′-2,8-diaza-1(6,3)-imidazo[1,2-b]pyridazina-4(1,2)-benzenacyclononaphan]-9′-one]",8.52
